Experimental data from US20140309171A1, “MARKER FOR BLOOD COAGULATION” (Universite Catholique De Louvain, priority 2011, published 2014).
Entries after “also recorded” stand apart in the source; their conditions may differ.

What was measured:
Type in all cases: cell-based
washed human platelets = experiment: Platelet aggregation, light transmission (Chrono-Log Aggregometer)
Protocol: Washed human platelets (used in in vitro studies). Platelets were obtained from adult healthy volunteers in accordance with the Ethics Commission of our institution (Commission d'Ethique Biomédicale Hospitalo-Facultaire, Université catholique de Louvain). Whole blood was collected with butterfly needle 21G into Sodium Citrate 1:10 solution (S-monovette). Platelet-rich plasma (PRP) was obtained by 15 min centrifugation at 330 g. The platelets pellet was then washed in Tyrode modified buffer (135 mM NaCl, 12 mM NaHCO3, 1 mM Sodium Citrate, 2.9 mM KCl, 0.3 mM Na2HPO4, 1 mM MgCl2, 5 mM D-glucose, 10 mM Hepes, 0.35% bovine serum albumin (BSA), pH 7.4 at 37° C.) and resuspended to a density of 2.5 10^5 platelets/μl for the measurement of intracellular Ca^2+ or platelet aggregation. For Western Blot analysis, PRP with eptifibatide 4 μg/ml (Integriline, GlaxoSmithKline) and ectonucleotidase apyrase (grade I) 0.5 U/ml was layered over a density barrier of iodixanol (Optiprep®) that allowed the erythrocytes and leucocytes to pellet during centrifugation at 350 g for 15 min. The platelets, because of their small size, sediment much more slowly. After centrifugation at 800 g for 10 min, the resulting pellet was resuspended to a density of 2·10^5 platelets/μl in Tyrode modified buffer before treatment and lysis of samples.
Light transmission during thrombin-induced platelet aggregation in human and murine PRP was recorded with a Chrono-Log Aggregometer at 37° C., under stirring condition (1200 crpm). The platelet suspension was incubated with dimethyl sulfoxide (DMSO, vehicle) or STO-609 (10 μM, Tocris) for 2 min before the addition of the thrombin (+/−0.03 U/ml). CaCl2 2 mM was added prior to the agonists.
To evaluate the potential implication of CaMKKβ in platelet aggregation, washed human platelets were pre-incubated for 2 min with 10 μM STO-609, prior to treatment with thrombin or ADP.

[1] = test system: intracellular Ca2+ in human platelets; experiment: Cytosolic Ca2+ measurement in fluo-3-loaded platelets; settings: 10 μM STO-609, 0.1 U/ml thrombin, 1 mM extracellular Ca2+
Protocol: Platelets pelleted from the platelet-rich plasma were suspended in Ca^2+-free modified Tyrode's buffer and then incubated with 3 μM flou-3/acetoxymethyl ester (Santa Cruz Biotechnology) at 37° C. for 30 min. Probenecid 2.5 mM (Sigma-Aldrich) was added to the buffer throughout the experiments to prevent leakage of the dye. After 2 washings, fluo-3-loaded platelets were suspended in modified Tyrode's buffer at a concentration of 2 10^7 platelets/ml. They were then pre-incubated with 10 μM STO-609 in the presence of 1 mM extracellular Ca^2+ with stirring at 37° C. for 2 min before the addition of thrombin (0.1 U/ml). Fluorescence (excitation 505 nm, emission 530 nm) was measured with a spectrophotometer (AMINCO SPF500). Ca^2+ concentration as estimated as follows: Kd* (F−Fmin)/(Fmax−Fmin), where the Kd of Fluo-3 is ([…] at 37° C.). The minimal fluorescence (Fmin) is the fluorescence in the absence of Ca^2+ and Fmax is the fluorescence determined with ionomycin 1 μM.

[2] = test system: myosin light chain (MLC) Ser 19 phosphorylation; experiment: Western blot of MLC Ser19 phosphorylation in human platelets; settings: 0.1 U/ml thrombin, pre-incubation with STO-609
Protocol: (§1) Washed human platelets (used in in vitro studies). Platelets were obtained from adult healthy volunteers in accordance with the Ethics Commission of our institution (Commission d'Ethique Biomédicale Hospitalo-Facultaire, Université catholique de Louvain). Whole blood was collected with butterfly needle 21G into Sodium Citrate 1:10 solution (S-monovette). Platelet-rich plasma (PRP) was obtained by 15 min centrifugation at 330 g. The platelets pellet was then washed in Tyrode modified buffer (135 mM NaCl, 12 mM NaHCO3, 1 mM Sodium Citrate, 2.9 mM KCl, 0.3 mM Na2HPO4, 1 mM MgCl2, 5 mM D-glucose, 10 mM Hepes, 0.35% bovine serum albumin (BSA), pH 7.4 at 37° C.) and resuspended to a density of 2.5 10^5 platelets/μl for the measurement of intracellular Ca^2+ or platelet aggregation. […]
(§2) Proteins were separated as described (Miranda et al. 2010. J Clin Invest 103(6): 879-887). […] Bound antibodies were detected by enhanced chemiluminescence (Thermofisher). […] Band intensities were quantified by scanning and processing image intensities with the program ImageJ (1.33 for Mac OS X). The quantification of immunoblots presented in results was obtained after normalization using the internal loading control.

[3] = test system: P-selectin (CD62P) on human platelet surface; experiment: Flow cytometry, P-selectin (CD62P) exposure, α-granule release; settings: 0.025 U/ml thrombin, 10 μM STO-609
Protocol: Flow cytometric analysis was performed on a FACScan (Becton Dickinson). Washed human platelets (2·10^5 platelets/μl) were pre-incubated with DMSO/STO-609 for 2 min and then treated with or without thrombin (0.025 U/ml) in the presence of excessive amounts of FITC-conjugated monoclonal antibody (anti-CD62P (BD Biosciences) or PAC-1 (BD Biosciences)) at room temperature. The samples were then fixed at 4° C. for 30 min with 2% paraformaldehyde. The levels of P-selectin expression and PAC1 binding were expressed as the percentages of cells positive for anti-CD62P and PAC-1, respectively. The negative cut-off for each antibody was set using resting platelets that gave less than 5% of cells positive for binding of anti-CD62P or PAC-1. In addition, the effect of STO-609 on α-granule release was determined by measuring the exposure on platelet surface of P-selectin (CD62P).

[4] = test system: TXB2 formation in human platelets; experiment: Thromboxane B2 assay in platelet supernatants; settings: 10 μM STO-609, 0.1 U/ml thrombin for 5 min
Protocol: After 2 min pre-incubation with 10 μM STO-609 or DMSO, washed platelets were treated with 0.1 U/ml thrombin for 5 min. Negative controls corresponded to platelets activated by thrombin in the presence of 1 mM acetylsalicylic acid (ASA). Platelet suspensions were pelleted (quick speed), and TXB2 in the supernatants was assayed according to the manufacturers instructions (Enzo Life Sciences).

[5] = test system: VASP Thr 278 phosphorylation; experiment: Western blot of VASP Thr278 phosphorylation in human platelets; settings: 0.1 U/ml thrombin, pre-incubation with STO-609
Protocol: as §1, §2

`O=C(O)c1ccc2c3c1cccc3c(=O)n1c3ccccc3nc21` [STO-609] was tested, and the “platelet aggregation caused by ADP (effect in words)” value (washed human platelets; 20 μM ADP, 10 μM STO-609) was “not inhibited”, the “thrombin-induced platelet aggregation, % of aggregation” value (washed human platelets; 0.025 U/ml thrombin + 10 μM STO-609, 2 min pre-incubation) was 11±4% and the “thrombin-induced platelet aggregation (effect in words)” value (washed human platelets; 0.025 U/ml thrombin, 10 μM STO-609) was “significantly inhibited; also recorded: prevents”. For the same compound, the “rise in Ca2+ concentration in response to thrombin” value [1] was “did not modify”, the “thrombin-induced MLC phosphorylation, effect of pre-incubation” value [2] was “decreased significantly; also recorded: prevents” and the “CD62P detection per platelet in response to thrombin (α-granule release)” value [3] was “significantly inhibited; also recorded: prevents”. For the same compound, the “thrombin-induced TXB2 formation” value [4] was “not affect” and the “thrombin-induced VASP phosphorylation on Thr 278, effect of pre-incubation” value [5] was “prevents”.
